Structures are written as SMILES.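 Following 48 hours of exposure in 96-well plates, responses at five concentrations were used to interpolate endpoints linearly. At the GI50, growth is halved.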 Active and inactive are the calls of the source. Cut-off read from the data, not from the text of the source: active = GI50 up to about 1.1 µM and inactive = higher. Where only a bound is given, the exact number is not on record here.

The text below walks through data of ChEMBL document CHEMBL1201862, “PubChem BioAssay data set” (2004).

Among the test systems are SN12C; SF-539; MDA-N; HCT-116; Malme-3M; MCF7; LOX IMVI; IGROV-1; OVCAR-8; BT-549; NCI-H460; HT-29; MDA-MB-231; A549; HCC 2998; SK-MEL-28; NCI-H23; U-251; SK-OV-3; SW-620.
Holding throughout (assay): NCI anticancer screen, dose series, 48 h

For the compound `Cc1cc2c(=Cc3ccc(N(C)C)cc3)c3ccccc3n2[n+]1C`, the GI50 in the assay with SN12C is 0.304 µM (active); with SF-539, 0.641 µM (active); in the assay on MDA-N, 0.383 µM (active); in the assay on HCT-116, 0.365 µM (active); in the assay on Malme-3M, 1.08 µM (active); in the assay on MCF7 it was 0.396 µM (active). Moreover, the GI50 is 0.458 µM (active) in the assay with LOX IMVI; 1.52 µM (inactive) with IGROV-1; 0.313 µM (active) in the assay with OVCAR-8; 0.537 µM (active) in the assay with BT-549; 0.393 µM (active) in the assay on NCI-H460; 0.675 µM (active) with HT-29. Moreover, the GI50 is 0.847 µM (active) with MDA-MB-231; 0.632 µM (active) in the assay with A549; 0.256 µM (active) with HCC 2998; 1.2 µM (inactive) with SK-MEL-28; 0.497 µM (active) in the assay with NCI-H23; 0.203 µM (active) with U-251. Further, the GI50 with SK-OV-3 is 1.44 µM (inactive); in the assay on SW-620 it was 1.21 µM (inactive).

With `CCN(CC)CCNc1nc(N)c(C#N)c(C#N)c1C#N`, the GI50 in the assay with SN12C, in the assay on SF-539, in the assay with MDA-N, in the assay on HCT-116, in the assay on Malme-3M and with MCF7 was > 10 µM (inactive) each time. Also, the GI50 with LOX IMVI, in the assay on IGROV-1, in the assay on OVCAR-8, in the assay on BT-549, with NCI-H460 and in the assay on HT-29 was > 10 µM (inactive) throughout. In addition, the GI50 in the assay on MDA-MB-231, with A549, with HCC 2998, in the assay with SK-MEL-28, in the assay on NCI-H23 and in the assay with U-251 was > 10 µM (inactive) each time. Besides, the GI50 in the assay with SK-OV-3 and in the assay with SW-620 was > 10 µM (inactive) throughout.

In the case of `COC(=O)C1(CCC(=O)N(C)c2ccccc2)NNC2C(=O)N(c3ccccc3)C(=O)C21` (stereo not given), the GI50 in the assay with SN12C, in the assay with SF-539, in the assay on MDA-N, in the assay on HCT-116, with Malme-3M and with MCF7 was > 10 µM (inactive) each time. The GI50 with LOX IMVI, with IGROV-1, in the assay with OVCAR-8, in the assay on BT-549, with NCI-H460 and in the assay with HT-29 was > 10 µM (inactive) in each case. Besides, the GI50 in the assay on MDA-MB-231, with A549, with HCC 2998, in the assay with SK-MEL-28, in the assay with NCI-H23 and in the assay with U-251 was > 10 µM (inactive) in each case. For the same compound, the GI50 in the assay with SK-OV-3 and in the assay on SW-620 was > 10 µM (inactive) throughout.

For `Cc1cc(/N=C/c2ccc(Cl)cc2)n(-c2ccccc2)n1`, the GI50 is 39.4 µM (inactive) in the assay with SN12C; > 100 µM (inactive) in the assay on SF-539; 32.2 µM (inactive) in the assay on MDA-N; 26.2 µM (inactive) in the assay with HCT-116; 49.3 µM (inactive) with Malme-3M; 32.2 µM (inactive) with MCF7. In addition, the GI50 in the assay on LOX IMVI is 54.2 µM (inactive); in the assay with IGROV-1, 45.7 µM (inactive); in the assay with OVCAR-8, 40.7 µM (inactive); in the assay with BT-549, 31.8 µM (inactive); with NCI-H460 it was 43.1 µM (inactive); in the assay with HT-29, 23.4 µM (inactive). Also, the GI50 in the assay on MDA-MB-231 is > 100 µM (inactive); in the assay on A549, 45.3 µM (inactive); in the assay with HCC 2998 it was 24.9 µM (inactive); in the assay on SK-MEL-28, 44.6 µM (inactive); with NCI-H23, 42 µM (inactive); in the assay with U-251 it was > 100 µM (inactive). In addition, the GI50 in the assay with SK-OV-3 was 67.9 µM (inactive); with SW-620, 39.2 µM (inactive).

Turning to `Clc1nc(Cl)c(Cc2ccccc2)c(Cl)n1`, the GI50 in the assay with SN12C is 4.39 µM (inactive); in the assay on SF-539 it was 5.3 µM (inactive); in the assay on MDA-N, 3.59 µM (inactive); in the assay on HCT-116, 1.91 µM (inactive); in the assay with Malme-3M, 5.35 µM (inactive); with MCF7, 5.12 µM (inactive). Moreover, the GI50 with LOX IMVI is 3.03 µM (inactive); in the assay with IGROV-1, 5.97 µM (inactive); in the assay with OVCAR-8, 4.34 µM (inactive); in the assay with BT-549, 3.37 µM (inactive); in the assay on NCI-H460 it was > 10 µM (inactive); with HT-29, 3.94 µM (inactive). Further, the GI50 in the assay on MDA-MB-231 is 3.75 µM (inactive); in the assay with A549 it was 12.5 µM (inactive); in the assay with HCC 2998, 13.7 µM (inactive); with SK-MEL-28, 10.5 µM (inactive); with NCI-H23 it was 8.32 µM (inactive); in the assay with U-251, 11.7 µM (inactive). Besides, the GI50 was 11.5 µM (inactive) with SK-OV-3 and 3.09 µM (inactive) with SW-620.

Take `O=C1OC(C2Cc3ccc4c(c3C2=O)CCCC4)c2ccccc21` (stereo not given): the GI50 in the assay on SN12C was 28.5 µM (inactive); in the assay with SF-539, 24.7 µM (inactive); in the assay on MDA-N it was 34.8 µM (inactive); in the assay with HCT-116 it was 40 µM (inactive); with Malme-3M, 24 µM (inactive); with MCF7, 33.9 µM (inactive). Further, the GI50 in the assay with LOX IMVI was 25.5 µM (inactive); in the assay with IGROV-1, 44.3 µM (inactive); in the assay on OVCAR-8 it was 43.9 µM (inactive); in the assay on BT-549 it was 54.8 µM (inactive); in the assay with NCI-H460 it was 27.3 µM (inactive); with HT-29, 36.6 µM (inactive). Further, the GI50 was 36.2 µM (inactive) in the assay with MDA-MB-231; 35.9 µM (inactive) in the assay with A549; 30.8 µM (inactive) with HCC 2998; 52.5 µM (inactive) in the assay with SK-MEL-28; 42.7 µM (inactive) in the assay on NCI-H23; 39.6 µM (inactive) in the assay on U-251. Moreover, the GI50 is 73.6 µM (inactive) with SK-OV-3 and 29.7 µM (inactive) in the assay with SW-620.

On to `CC(=O)NC1C(OCc2ccccc2)OC(CO)C(O)C1OCC(=O)NC(C)C(=O)NC(CCC(=O)Nc1ccc2c(c1)CN1C(=O)c3ccccc3C1=N2)C(N)=O` (stereo not given), for which the GI50 in the assay on SN12C was > 100 µM (inactive); in the assay on SF-539, > 100 µM (inactive); in the assay on MDA-N, > 100 µM (inactive); in the assay on HCT-116, > 100 µM (inactive); with Malme-3M, > 100 µM (inactive); in the assay on MCF7, 53.2 µM (inactive). The GI50 with LOX IMVI, in the assay with IGROV-1, in the assay with OVCAR-8, in the assay with BT-549, in the assay with NCI-H460 and in the assay on HT-29 was > 100 µM (inactive) in each case. In addition, the GI50 in the assay with MDA-MB-231, in the assay on A549, in the assay on HCC 2998, in the assay with SK-MEL-28, in the assay on NCI-H23 and in the assay on U-251 was > 100 µM (inactive) in each case. Moreover, the GI50 with SK-OV-3 and in the assay on SW-620 was > 100 µM (inactive) each time.

On to `COC(=O)[C@H](COC(=O)/C=C/c1ccc(OC(C)=O)c(OC(C)=O)c1)NC(=O)/C=C/c1ccc(OC(C)=O)c(OC(C)=O)c1`, for which the GI50 was 18.8 µM (inactive) in the assay with SN12C; 45.1 µM (inactive) in the assay on SF-539; 17.1 µM (inactive) in the assay on MDA-N; 16.7 µM (inactive) in the assay with HCT-116; 5.09 µM (inactive) in the assay on Malme-3M; 38.4 µM (inactive) with MCF7. The GI50 was 18.4 µM (inactive) in the assay on LOX IMVI; 18.5 µM (inactive) in the assay with IGROV-1; 27.7 µM (inactive) in the assay on OVCAR-8; 16.3 µM (inactive) in the assay with BT-549; 22.4 µM (inactive) in the assay on NCI-H460; 22.3 µM (inactive) with HT-29. The GI50 in the assay on MDA-MB-231 was 17.7 µM (inactive); in the assay on A549 it was 30.7 µM (inactive); in the assay with HCC 2998 it was 17.6 µM (inactive); with SK-MEL-28 it was 30.5 µM (inactive); with NCI-H23 it was 22.4 µM (inactive); in the assay on U-251, 29.1 µM (inactive). Further, the GI50 was 22.2 µM (inactive) in the assay with SK-OV-3 and 30.7 µM (inactive) in the assay with SW-620.

Turning to `C[C@]12CC[C@@H]3c4ccc(OS(N)(=O)=O)cc4CC[C@H]3[C@@H]1CCC2=O` [EMATE], the GI50 in the assay on SN12C was 81.3 µM (inactive); in the assay with SF-539 it was 52.2 µM (inactive); in the assay on MDA-N it was 31.6 µM (inactive); with HCT-116 it was 30.2 µM (inactive); with Malme-3M, 45.6 µM (inactive); with MCF7 it was 36.5 µM (inactive). The GI50 is 75.9 µM (inactive) with LOX IMVI; 28.7 µM (inactive) in the assay with IGROV-1; 53 µM (inactive) in the assay on OVCAR-8; 45 µM (inactive) with BT-549; 31.6 µM (inactive) in the assay with NCI-H460; 30.1 µM (inactive) in the assay with HT-29. Further, the GI50 was 94 µM (inactive) in the assay with MDA-MB-231; 35 µM (inactive) in the assay on A549; 49.2 µM (inactive) with HCC 2998; 95.1 µM (inactive) in the assay with SK-MEL-28; 37.8 µM (inactive) with NCI-H23; 46.2 µM (inactive) in the assay with U-251. Further, the GI50 is > 100 µM (inactive) with SK-OV-3 and 44.6 µM (inactive) in the assay on SW-620.

Consider `C=C1C(=O)O[C@@H]2C[C@@]3(C)CCC[C@H](C)C3=C[C@H]12` [HELENINE], for which the GI50 in the assay on SN12C was 3.01 µM (inactive); with SF-539, 10.6 µM (inactive); with MDA-N, 4.66 µM (inactive); in the assay on HCT-116, 4.45 µM (inactive); with Malme-3M, 3.95 µM (inactive); with MCF7 it was 4.58 µM (inactive). The GI50 in the assay on LOX IMVI is 10.5 µM (inactive); in the assay on IGROV-1, 16.1 µM (inactive); in the assay on OVCAR-8, 6.19 µM (inactive); in the assay with BT-549, 3.62 µM (inactive); in the assay with NCI-H460 it was 17 µM (inactive); with HT-29, 4.29 µM (inactive). Further, the GI50 with MDA-MB-231 was 14.2 µM (inactive); with A549, 16.1 µM (inactive); in the assay with HCC 2998 it was 15.7 µM (inactive); with SK-MEL-28, 8 µM (inactive); in the assay on NCI-H23, 4.94 µM (inactive); in the assay with U-251 it was 9.86 µM (inactive). Also, the values for the GI50 in the assay on SK-OV-3 and with SW-620 were 22 µM (inactive) and 3.83 µM (inactive), respectively.
